Source: PMC12074795, “Synthesis and biological evaluation of esterified anti-inflammatory drugs with ethylene glycol linkers: cytotoxicity, anti-inflammatory and antioxidant properties” (Royal Society Open Science, 2025)

Columns and labels:
Assay type in all cases: biochemical
[1] = ABTS radical cation scavenging (decolorization) test; conditions: 734 nm, 30 min
Procedure: (§1) The in vitro antioxidant ability of the compounds synthesized in this work was evaluated using three different assays, including (i) the ABTS radical cation reduction-decolorization test, which uses the technique of Khan et al. consisting of the reduction of the cation radical by an antioxidant through the discoloration measured by absorption at the wavelength of 734 nm; (ii) interaction with the stable free radical DPPH, based on Bassene’s method, in which the scavenging of DPPH radicals is carried out by a colorimetric method consisting of the reduction of the DPPH radical, determined by its absorption at a wavelength of 517 nm; and (iii) the FRAP test according to the protocol of Path Canada, based on the ability of a substance to reduce Fe^3+ ions to Fe^2+ ions, which, in the presence of 1,10-phenanthroline, form a red-orange complex whose optical density can be measured at 505 nm.
The modified technique by Khan et al. was used to scavenge ABTS^+• cation radicals through a discoloration test. In this test, potassium permanganate (KMnO4) or potassium persulphate (K2S2O8) reacts with ABTS to generate a blue-green ABTS^+• radical. Antioxidants reduce this radical, leading to a measurable colour change at 734 nm, proportional to the antioxidant concentration. The antioxidant capacity is assessed by comparing the intensity reduction of ABTS colour with that of a reference antioxidant, gallic acid. Stock and dilute solutions of synthetic compounds were prepared as detailed in §3.2.5.1. Diluted concentrations were (50, 25, 12.5, 6.25, 3.125, 1.5625 and 0.78125)/Mi in mM. The ABTS solution was obtained by mixing ABTS with K2S2O8, producing an intense blue colour. The ABTS^+• radical was generated by combining equal volumes of a 4.9 mM K2S2O8 solution and a 7 mM ABTS stock solution, stored in the dark at room temperature for 15 h before use. The 7 mM ABTS stock was then diluted 20 times with distilled water. A total of 25 µl of each dilution was added to wells along with 75 µl of 0.175 mM ABTS+ solution. After 30 min of incubation in the dark at room temperature, optical densities were measured at 734 nm. Negative controls contained the ABTS reagent without synthesized compounds, while positive controls used gallic acid at the same final concentrations as the compounds. Compounds were also tested alone to assess fluorescence. The reduction of ABTS results in a blue discoloration, with lower absorbance indicating higher antioxidant activity.
(§2) The percentages of scavenging or 50% reduction were calculated using gallic acid as a standard for 100% reduction. The concentration of radical scavengers needed to neutralize 50% of free radicals, referred to as SC50, was determined using GraphPad Prism 8.0.1 software (244).

[2] = DPPH radical scavenging test; conditions: 517 nm, 30 min
Procedure: as §1
The DPPH radical trapping protocol is based on Bassene’s method, modified for colorimetric analysis. DPPH is a stable purple organic nitrogen radical that absorbs light at 517 nm. When an anti-free radical agent is present, DPPH is reduced to a stable yellow compound, indicated by a loss of colour between 470 and 517 nm. A 0.02% DPPH solution was made with ethanol and stored in a sealed jar in the dark. Stock solutions of the synthesized compounds were prepared by dissolving 100 mg of each in 1 ml of DMSO, and the final concentration of DMSO concentration in the first well was 0.5%. These stocks were then diluted to achieve concentrations (500, 250, 125, 62.5, 31.25, 15.625 and 7.8125)/Mi in mM (Mi: molecular weight of each synthetic compound). Each dilution (25 µl) was put to the wells and 75 µl of the DPPH solution (0.02%) were added. Optical densities were measured at 517 nm after 30 min of incubation in the dark. The negative control used DPPH alone, while the positive control used gallic acid treated with solutions of the synthesized compounds at final concentrations (50, 25, 12.5, 6.25, 3.125, 1.5625 and 0.78125)/Mi in mM. Synthesized compounds were also tested alone to assess fluorescence.
Assays were performed in duplicate, and results were averaged. Percentage inhibition (PI), reflecting the antioxidant activity related to the DPPH˙ radical scavenging effect, was calculated using the following formula:
(PI)=Acontrol−Atest/Acontrol×100,
where Acontrol = absorbance of the control sample and Atest = absorbance of the tested sample.
as §2

[3] = Ferric reducing antioxidant power (FRAP) test; conditions: 505 nm
Procedure: as §1
The Fe^3+ reduction test followed Path Canada’s protocol with some modifications, assessing the reduction of Fe^3+ ions to Fe^2+ ions, which form a red-orange complex with 1,10-phenanthroline, measurable at 505 nm. The colour intensity correlates with the amount of Fe^3+ reduced. Four solutions were prepared: 1.2 mg ml^−1 of Fe^3+ solution (1.2 mg FeCl3 in 1 ml distilled H2O), 0.2% ortho-phenanthroline solution (200 mg powder in 100 ml ethanol), 2 mg ml^−1 of gallic acid solution (2 mg gallic acid in 1 ml distilled H2O) as a positive control, stock and dilute solutions of the synthesized compounds (see §3.2.5.1). In a 96-well microplate, 180 µl distilled H2O was added to the first column and 100 µl to others for dilution. Each compound solution (20 µl at 10 mg ml^−1) was mixed with 25 µl Fe^3+ solution and incubated for 15 min in the dark at room temperature. Afterwards, 50 µl ortho-phenanthroline solution was added, followed by another 15 min incubation. Optical density was measured at 505 nm using a TECAN M200 plate reader. The positive control was treated similarly to the DPPH and ABTS assays.
as §2

[4] = first replicate, read-out: ABTS SC50(1)
[5] = second replicate, read-out: ABTS SC50(2)
[6] = first replicate, read-out: DPPH SC50(1)
[7] = mean of duplicate, read-out: DPPH mean SC50
[8] = second replicate, read-out: DPPH SC50(2)
[9] = first replicate, read-out: FRAP SC50(1)
[10] = mean of duplicate, read-out: FRAP mean SC50
[11] = second replicate, read-out: FRAP SC50(2)

Row | Compound | EC50 [1, 4] [µM] | EC50 ([1]; mean of duplicate, read-out: ABTS mean SC50) [µM] | EC50 [1, 5] [µM] | EC50 [2, 6] [µM] | EC50 [2, 7] [µM] | EC50 [2, 8] [µM] | EC50 [3, 9] [µM] | EC50 [3, 10] [µM] | EC50 [3, 11] [µM]
1 | CCCCCCCC/C=C\CCCCCCCC(=O)OCCOC(=O)C(C)c1ccc(CC(C)C)cc1 (centres unmarked) [Compound 5b, 2-((2-(4-isobutylphenyl)propanoyl)oxy)ethyl oleate] | 2150 | 2130 | 2110 | 6440 | 6480 | 6520 | 6160 | 6180 | 6200
2 | O=C(O)c1cc(O)c(O)c(O)c1 [gallic acid, reference compound] | 38 |  | 38 | 15 | 15 | 15 | 59 | 61 | 62
